This note sets out measurements from publication PMC12169669, “Regio- and Stereoselective Synthesis of Nitro-fatty Acids as NRF2 Pathway Activators Working under Ambient or Hypoxic Conditions” (Journal of Medicinal Chemistry, 2025).

The test system of one assay is Gclm. Briefly: Relative gene expression of Gclm in BMCs (qRT-PCR). The assay is classed as cell-based, mouse. To be noted: 2 μM, 4 h; for Gclm relative expression: 4% and 1% oxygen. The text has this:
(§1) Primary bone marrow cells (BMCs) were isolated from 8–12-week-old male C57BL/6 mice (25–30 g, AnLab, Czech Republic). Mice were housed under standard conditions. BMCs were isolated as follows: The day before isolation, phosphate-buffered saline (PBS), ACK Lysis Buffer (A10492-01, Thermo Fisher Scientific), and Iscove’s Modified Dulbecco’s Medium (IMDM) (12440-053, Thermo Fisher Scientific) were placed in a hypoxic chamber (InvivO2 400, Baker Ruskinn, UK) with adjustable oxygen control to equilibrate for the target oxygen concentrations. On the day of the experiment, animals were euthanized using ketamine/xylazine, and bilateral femurs were extracted. BMCs were flushed with hypoxic (1% O2 unless stated otherwise) PBS supplemented with 2% fetal bovine serum (FBS; low endotoxin, FB-1101/500, Biosera, France). After hemolysis at room temperature using hypoxic ACK Lysis Buffer, nucleated BMCs were washed with hypoxic PBS + 2% FBS and counted using a TC20 automated cell counter (Bio-Rad). Cells were kept under hypoxic conditions prior to treatment. The medium for BMC culture, consisting of IMDM with 2% FBS and 1% penicillin/streptomycin (LM-A4118/100, Biosera, France), was supplemented with 10 ng/mL mouse IL-3, 10 ng/mL mouse IL-6, and 50 ng/mL mouse stem cell factor - SCF (213-13, 216-16, and 250-03, respectively; all from PeproTech). Cells were cultured at 37 °C in a humidified atmosphere containing 5% CO2 and the specified oxygen concentrations (21%, 4%, or 1%).
For the relative gene expression of nuclear factor erythroid 2-related factor 2 (NRF2, encoded by Nfe2l2), heme oxygenase-1 (Hmox1), and Glutamate-Cysteine Ligase Modifier Subunit (Gclm) (Mm00477784_m1, Mm00516005_m1, Mm00514996_m1, all from Thermo Fisher Scientific), mouse BMC (3 × 10^6 cells) were cultivated on a 6-well plate in 1.5 mL of complete media (see Isolation and culture of primary cells), and then incubated with 2 μM NO2FAs or control (medium only) for 4 h at the specified oxygen levels (21%, 4%, or 1%). Then, the adherent and nonadherent cells were washed with PBS and lysed using a NucleoSpin RNA Plus kit (740984, Machery-Nagel; Germany). The concentration and purity of isolated RNA was assessed using an Infinite M200 Pro spectrophotometer (Tecan, Austria). Total RNA (0.2 μg) was reversely transcribed into first strand cDNA using a RevertAid First Strand cDNA Synthesis kit according to the manufacturer’s protocol (K1622, Thermo Fisher Scientific). qRT-PCR reactions were performed in a LightCycler480 instrument (Roche; Switzerland) using TaqMan FastAdvanced Master Mix for qPCR (4444557, Thermo Fisher Scientific) and the following program was used: uracil-N-glycosylase activation step at 50 °C for 2 min, an initial denaturation step at 95 °C for 2 min, followed by 45 cycles (95 °C for 3 s, 60 °C for 30 s), and a final cooling step at 40 °C for 1 min. Data were normalized to ribosomal protein L32 (Rpl32, Mm02528467_g1, Thermo Fisher Scientific) and presented as 2^–Δcq.
3 Expression of NRF2 and its target genes in response to NO2FA derivatives. BMCs were cultured under 4% or 1% oxygen conditions and treated for 4 h with the tested NO 2 FAs (2 μM) or medium followed by quantification of (A) Nfe2l2, (B) Hmox1, and (C) Gclm with PCR. Results are presented as relative expression across different oxygen culture conditions. Dimethyl fumarate (DMF) was added as a control. Data are expressed as mean ± SD from 3 to 7 independent experiments (n = 3–7), analyzed with one-way ANOVA with Dunnett’s multiple comparisons test compared to the controls (*p < 0.05; **p < 0.01; ***p < 0.001).
Relative expression of (A) Hmox1 and (B) Gclm in different oxygen […]
Figure S 2. Relative expression of (A) Hmox1 and (B) Gclm in different oxygen conditions. BMCs were cultured under varying oxygen conditions (21, 4, and 1%) and treated for 4 hours with the tested 10 -NO₂OA (2 µM) or medium followed by quantification […]
with PCR. […]
In general terms: Quantitative PCR measures a nucleic acid by following its amplification.

The test system of the next assay is HO-1. The experiment in a line: HO-1 protein level in BMCs (Western blot). To be noted: 2 μM, 4 h; for HO-1 increase at 1% oxygen relative to atmospheric conditions: 1% vs 21% oxygen. The assay is classed as cell-based, mouse.
Source text: as §1
Briefly, 1.5 × 10^6 BMCs were placed in 0.2 mL of complete medium in 1.5 mL microtubes and incubated with 2 μM NO2FAs or the control (medium only) for 1 (NRF2), 4 (heme oxygenase-1, HO-1), or 7 (glutamate-cysteine ligase modifier subunit, GCLM) hours at the specified oxygen levels (21%, 4%, or 1%). Cells were then spun down and washed with PBS (from this step onward, cells were processed under atmospheric conditions). Next, cells were lysed in 60 μL RIPA buffer (89901, Thermo Fisher Scientific) containing protease and phosphatase inhibitors cocktail (78442, Thermo Fisher Scientific). Cell lysates were sonicated and centrifuged at 15,000g for 3 min at 4 °C, and 15 μL of lane marker (3900, Thermo Fisher Scientific) was added to the supernatants. Samples were boiled for 3 min at 95 °C. Equal volumes of lysates (15–45 μL/well) were loaded onto 7–15% SDS-polyacrylamide gels. Proteins were then transferred onto PVDF membranes (IPVH85R, EMD Millipore Corp.) and blocked with 5% nonfat dry milk in TBST. Membranes were incubated overnight at 4 °C with the following primary antibodies: anti-β-actin (1:1000; #3700, Cell Signaling Technology), antivinculin (1:10,000; #SAV9264, Sigma-Aldrich), anti-NRF2 (1:500; A308758, Lot 38410, Antibodies.com, UK), anti-HO-1 (1:1000; #43966, Cell Signaling Technology), antihistone H3 (1:2000; #4499, Cell Signaling Technology), or anti-GCLM (1:100; sc-55586, Santa Cruz Biotechnology). This was followed by incubation with corresponding HRP-linked secondary antibodies (antimouse IgG, #7076, 1:1000–5000; or antirabbit IgG, #7074, 1:1000–2000; both from Cell Signaling Technology) for 1 h at room temperature. Protein bands were visualized using an enhanced chemiluminescent substrate (SuperSignal 34577/34095, Thermo Fisher Scientific). The optical densities of detected proteins were measured using ImageJ v1.52 (NIH).
4 Expression of NRF2-target proteins HO-1 and GCLM. NO 2 FA derivatives upregulate the expression of NRF2-target proteins in mouse BMCs. BMCs were cultured under 21% or 1% oxygen conditions and treated with 2 μM of the tested NO 2 FAs for 4 h (A, B) or 7 h (C, D). HO-1 (A, B) and GCLM (C, D) expression in whole-cell lysates was subsequently analyzed. Results are presented as the fold change relative to control cells across different oxygen culture conditions. Data are expressed as mean ± SD from 3–5 independent experiments (n = 3–5). […]

The structures appear in SMILES notation.

As for `CCCCCCCC/C=C(\CCCCCCCC(=O)O)[N+](=O)[O-]` [9-NO2OA, (9E)-9-Nitro-oleic Acid], in the assay with Gclm, the Gclm relative expression entry is listed as “significant upregulation”. The “HO-1 increase at 1% oxygen relative to atmospheric conditions” value in the assay on HO-1 is listed as “roughly 1.8 fold”. Also, in the assay with HO-1 (21% oxygen), the “HO-1 protein level, fold change relative to control” value is reported as “significantly increased”.
For the molecule `CCCCC/C=C\C/C(=C\CCCCCCCC(=O)O)[N+](=O)[O-]` [10-NO2LA, (9E,12Z)-10-Nitro Linoleic Acid], the Gclm relative expression entry with Gclm is “upregulation that was dependent on oxygen levels or specific target genes”. Also, the “HO-1 protein level, fold change relative to control” value in the assay on HO-1 (1% oxygen) was “only increased HO-1 under hypoxic conditions”.
Take `CCCCCCCCC(CCCCCCCCC(=O)O)[N+](=O)[O-]` (stereo not shown) [10-NO2SA, 10-Nitro Stearic acid]: the Gclm relative expression entry in the assay on Gclm is given as “no effects”. The “HO-1 protein level, fold change relative to control” value with HO-1 (1% oxygen) and with HO-1 (21% oxygen) was “no significant effects” each time.
Take `CCCCCCCC/C(=C\CCCCCCCC(=O)O)[N+](=O)[O-]` [10-NO2OA, (9E)-10-Nitro-oleic Acid]: the “Gclm expression at 1% oxygen compared to 21%” value in the assay on Gclm (1% vs 21% oxygen) was “not observed”. Also, in the assay with Gclm, the Gclm relative expression result is given as “significant upregulation”. Also, the “HO-1 increase at 1% oxygen relative to atmospheric conditions” value with HO-1 is reported as approximately 2.2 fold. Besides, the “HO-1 protein level, fold change relative to control” value in the assay with HO-1 (21% oxygen) is recorded as “significantly increased”.
On to `CCCCCC/C=C/C=C(\CCCCCCCC(=O)O)[N+](=O)[O-]` [9-NO2cLA, (9E,11E)-9-Nitro Conjugated Linoleic Acid], for which the Gclm relative expression result with Gclm is “upregulation that was dependent on oxygen levels”.
